Experimental data published in paper PMC7180948, “New Insights into 4-Anilinoquinazolines as Inhibitors of Cardiac Troponin I–Interacting Kinase (TNNi3K)” (Molecules, 2020).

How the values were obtained:
Test in all cases: biochemical
Design in all cases: KINOMEscan competition binding panel (Eurofins DiscoverX), single concentration, percent inhibition
Conditions in all cases: read-out: 15 at 1 µM % inhibition
WNK2 = WNK2 (Homo sapiens, UniProt Q9Y3S1)
Summary of the method: (§1)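 Values come from single-concentration (1 µM) profiling in the Eurofins DiscoverX KINOMEscan competition-binding platform, which covers over 400 kinases.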

ASK2 = target: T1, ASK2 (Homo sapiens, UniProt O95382)
T1 construct: gene MAP3K6
Summary of the method: as §1

JNK3 = target: T2, JNK3 (Homo sapiens, UniProt P53779)
T2 construct: gene MAPK10
Summary of the method: as §1

PRKR = target: T3, PRKR (Homo sapiens, UniProt P19525)
T3 construct: gene EIF2AK2
T3 sequence (P19525 whole entry): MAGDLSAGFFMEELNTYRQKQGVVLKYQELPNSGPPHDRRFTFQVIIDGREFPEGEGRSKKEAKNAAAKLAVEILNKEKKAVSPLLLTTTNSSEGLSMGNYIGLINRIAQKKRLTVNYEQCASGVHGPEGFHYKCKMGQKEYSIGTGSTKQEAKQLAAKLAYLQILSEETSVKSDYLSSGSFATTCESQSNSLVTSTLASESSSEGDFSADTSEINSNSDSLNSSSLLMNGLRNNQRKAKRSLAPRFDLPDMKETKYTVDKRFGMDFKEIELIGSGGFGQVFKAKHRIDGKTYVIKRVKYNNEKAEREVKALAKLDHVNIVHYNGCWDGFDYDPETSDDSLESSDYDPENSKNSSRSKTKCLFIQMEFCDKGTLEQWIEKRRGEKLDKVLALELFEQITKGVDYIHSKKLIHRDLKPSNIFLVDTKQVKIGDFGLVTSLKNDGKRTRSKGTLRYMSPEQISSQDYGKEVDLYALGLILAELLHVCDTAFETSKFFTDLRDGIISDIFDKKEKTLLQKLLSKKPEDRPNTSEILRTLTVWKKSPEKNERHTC
Summary of the method: as §1

MINK = target: T4, MINK (Homo sapiens, UniProt Q8N4C8)
T4 construct: gene MINK1
T4 sequence (Q8N4C8 whole entry): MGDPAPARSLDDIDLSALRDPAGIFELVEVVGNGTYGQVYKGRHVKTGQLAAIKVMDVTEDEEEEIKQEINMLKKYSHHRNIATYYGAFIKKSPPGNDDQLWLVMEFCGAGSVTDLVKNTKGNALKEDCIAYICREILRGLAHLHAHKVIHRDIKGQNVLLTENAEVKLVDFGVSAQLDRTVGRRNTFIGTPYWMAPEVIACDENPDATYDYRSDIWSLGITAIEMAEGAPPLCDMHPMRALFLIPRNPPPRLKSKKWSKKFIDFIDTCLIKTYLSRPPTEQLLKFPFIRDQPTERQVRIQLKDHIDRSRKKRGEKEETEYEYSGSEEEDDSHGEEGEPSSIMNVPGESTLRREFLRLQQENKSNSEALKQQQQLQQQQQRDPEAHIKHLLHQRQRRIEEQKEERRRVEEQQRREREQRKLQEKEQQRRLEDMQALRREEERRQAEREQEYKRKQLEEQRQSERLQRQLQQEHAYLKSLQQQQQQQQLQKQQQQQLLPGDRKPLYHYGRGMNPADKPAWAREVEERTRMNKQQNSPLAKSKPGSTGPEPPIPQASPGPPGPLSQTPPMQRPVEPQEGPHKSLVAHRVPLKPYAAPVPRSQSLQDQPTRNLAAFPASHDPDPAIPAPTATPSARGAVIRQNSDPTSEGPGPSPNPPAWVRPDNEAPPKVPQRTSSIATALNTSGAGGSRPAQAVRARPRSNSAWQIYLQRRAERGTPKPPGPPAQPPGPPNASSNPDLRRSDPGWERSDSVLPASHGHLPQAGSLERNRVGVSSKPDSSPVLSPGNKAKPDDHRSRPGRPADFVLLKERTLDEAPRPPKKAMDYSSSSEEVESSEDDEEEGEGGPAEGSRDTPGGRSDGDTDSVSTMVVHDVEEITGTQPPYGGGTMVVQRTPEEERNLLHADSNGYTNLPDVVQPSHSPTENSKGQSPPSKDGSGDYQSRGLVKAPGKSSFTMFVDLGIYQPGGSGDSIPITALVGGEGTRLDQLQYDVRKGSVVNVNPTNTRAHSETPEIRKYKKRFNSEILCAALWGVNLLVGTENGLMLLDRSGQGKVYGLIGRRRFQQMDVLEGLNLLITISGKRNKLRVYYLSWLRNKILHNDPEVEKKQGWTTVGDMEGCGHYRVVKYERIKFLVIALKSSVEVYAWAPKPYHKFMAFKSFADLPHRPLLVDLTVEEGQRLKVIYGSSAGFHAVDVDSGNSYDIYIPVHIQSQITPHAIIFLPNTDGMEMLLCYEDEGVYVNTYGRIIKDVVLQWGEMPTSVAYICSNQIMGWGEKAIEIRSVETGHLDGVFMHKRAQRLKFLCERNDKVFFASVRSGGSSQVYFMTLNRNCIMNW
Summary of the method: as §1

MEK1 = target: T5, MEK1 (Homo sapiens, UniProt Q02750)
T5 construct: gene MAP2K1
T5 sequence (Q02750 whole entry): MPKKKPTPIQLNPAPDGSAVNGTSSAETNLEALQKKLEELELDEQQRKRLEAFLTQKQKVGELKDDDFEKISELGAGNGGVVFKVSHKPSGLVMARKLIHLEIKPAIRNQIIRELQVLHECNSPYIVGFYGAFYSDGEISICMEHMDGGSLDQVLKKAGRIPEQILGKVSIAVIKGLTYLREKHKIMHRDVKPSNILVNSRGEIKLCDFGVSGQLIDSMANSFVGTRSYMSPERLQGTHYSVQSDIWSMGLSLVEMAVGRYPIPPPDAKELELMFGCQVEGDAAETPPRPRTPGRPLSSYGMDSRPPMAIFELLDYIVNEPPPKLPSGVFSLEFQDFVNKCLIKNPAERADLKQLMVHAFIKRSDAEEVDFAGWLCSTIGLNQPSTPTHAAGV
Summary of the method: as §1

DLK = target: T6, DLK (Homo sapiens, UniProt Q12852)
T6 construct: gene MAP3K12
Summary of the method: as §1

TYRO3 = TYRO3 (Homo sapiens, UniProt Q06418)
TYRO3, sequence (Q06418 whole entry): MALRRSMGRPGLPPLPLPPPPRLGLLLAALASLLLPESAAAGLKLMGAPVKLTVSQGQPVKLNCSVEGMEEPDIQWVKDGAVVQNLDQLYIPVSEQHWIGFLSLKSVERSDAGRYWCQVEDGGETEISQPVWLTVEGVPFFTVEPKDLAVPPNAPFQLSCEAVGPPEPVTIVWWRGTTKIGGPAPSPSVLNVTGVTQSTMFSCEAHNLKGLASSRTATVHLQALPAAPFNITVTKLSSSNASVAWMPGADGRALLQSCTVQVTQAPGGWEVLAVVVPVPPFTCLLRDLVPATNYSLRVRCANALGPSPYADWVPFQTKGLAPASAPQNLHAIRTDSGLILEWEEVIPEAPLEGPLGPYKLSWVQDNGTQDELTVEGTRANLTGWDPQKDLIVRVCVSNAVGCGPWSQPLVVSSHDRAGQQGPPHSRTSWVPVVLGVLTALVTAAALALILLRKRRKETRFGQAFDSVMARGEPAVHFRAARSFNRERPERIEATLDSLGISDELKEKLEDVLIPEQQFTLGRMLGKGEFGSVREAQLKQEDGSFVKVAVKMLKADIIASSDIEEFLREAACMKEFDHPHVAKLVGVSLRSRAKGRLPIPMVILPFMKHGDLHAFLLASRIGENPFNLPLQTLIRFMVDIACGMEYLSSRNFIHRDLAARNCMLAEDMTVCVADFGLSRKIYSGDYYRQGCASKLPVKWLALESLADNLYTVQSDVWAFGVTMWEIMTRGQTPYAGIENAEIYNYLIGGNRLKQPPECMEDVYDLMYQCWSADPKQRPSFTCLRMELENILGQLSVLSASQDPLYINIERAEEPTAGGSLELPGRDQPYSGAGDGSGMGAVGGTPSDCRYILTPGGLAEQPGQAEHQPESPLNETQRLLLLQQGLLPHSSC
Summary of the method: as §1

PIK3CA(Q546K) = PIK3CA(Q546K) (Homo sapiens, UniProt P42336, Q546K)
Summary of the method: as §1

RIOK3 = RIOK3 (Homo sapiens, UniProt O14730)
Summary of the method: as §1

GRK1 = GRK1 (Homo sapiens, UniProt Q15835)
Summary of the method: as §1

MYLK = MYLK (Homo sapiens, UniProt Q15746)
Summary of the method: as §1

BRAF = BRAF (Homo sapiens, UniProt P15056)
Summary of the method: as §1

[1] = target: EGFR(L747-S752del, P753S) (Homo sapiens, UniProt P00533, DEL747-752/P753S)
Summary of the method: as §1

ZAK = target: T7, ZAK (Homo sapiens, UniProt Q9NYL2)
T7 construct: gene MAP3K20
T7 sequence (Q9NYL2 whole entry): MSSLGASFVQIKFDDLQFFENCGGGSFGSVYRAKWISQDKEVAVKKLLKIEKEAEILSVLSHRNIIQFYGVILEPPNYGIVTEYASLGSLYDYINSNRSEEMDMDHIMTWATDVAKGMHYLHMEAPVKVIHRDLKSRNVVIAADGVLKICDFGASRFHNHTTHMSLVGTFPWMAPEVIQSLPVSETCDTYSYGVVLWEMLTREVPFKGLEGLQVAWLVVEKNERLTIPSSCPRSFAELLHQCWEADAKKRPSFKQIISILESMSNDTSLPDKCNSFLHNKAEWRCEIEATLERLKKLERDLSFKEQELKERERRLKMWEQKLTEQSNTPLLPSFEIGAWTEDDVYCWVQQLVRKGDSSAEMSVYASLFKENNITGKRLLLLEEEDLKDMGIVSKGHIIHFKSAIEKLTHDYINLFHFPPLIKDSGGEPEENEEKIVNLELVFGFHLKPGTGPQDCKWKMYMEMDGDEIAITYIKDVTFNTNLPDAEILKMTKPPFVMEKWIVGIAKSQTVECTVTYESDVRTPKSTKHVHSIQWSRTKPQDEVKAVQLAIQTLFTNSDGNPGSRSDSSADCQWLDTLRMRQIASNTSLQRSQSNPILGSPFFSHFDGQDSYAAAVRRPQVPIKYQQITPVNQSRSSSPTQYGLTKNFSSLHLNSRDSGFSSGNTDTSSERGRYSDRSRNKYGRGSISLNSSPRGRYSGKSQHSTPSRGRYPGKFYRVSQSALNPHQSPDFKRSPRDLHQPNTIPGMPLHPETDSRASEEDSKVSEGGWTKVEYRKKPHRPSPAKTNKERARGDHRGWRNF
Summary of the method: as §1

KIT(V559D,V654A) = KIT(V559D,V654A) (Homo sapiens, UniProt P10721, V559D/V654A)
Summary of the method: as §1

PIK3CB = PIK3CB (Homo sapiens, UniProt P42338)
PIK3CB, sequence (P42338 whole entry): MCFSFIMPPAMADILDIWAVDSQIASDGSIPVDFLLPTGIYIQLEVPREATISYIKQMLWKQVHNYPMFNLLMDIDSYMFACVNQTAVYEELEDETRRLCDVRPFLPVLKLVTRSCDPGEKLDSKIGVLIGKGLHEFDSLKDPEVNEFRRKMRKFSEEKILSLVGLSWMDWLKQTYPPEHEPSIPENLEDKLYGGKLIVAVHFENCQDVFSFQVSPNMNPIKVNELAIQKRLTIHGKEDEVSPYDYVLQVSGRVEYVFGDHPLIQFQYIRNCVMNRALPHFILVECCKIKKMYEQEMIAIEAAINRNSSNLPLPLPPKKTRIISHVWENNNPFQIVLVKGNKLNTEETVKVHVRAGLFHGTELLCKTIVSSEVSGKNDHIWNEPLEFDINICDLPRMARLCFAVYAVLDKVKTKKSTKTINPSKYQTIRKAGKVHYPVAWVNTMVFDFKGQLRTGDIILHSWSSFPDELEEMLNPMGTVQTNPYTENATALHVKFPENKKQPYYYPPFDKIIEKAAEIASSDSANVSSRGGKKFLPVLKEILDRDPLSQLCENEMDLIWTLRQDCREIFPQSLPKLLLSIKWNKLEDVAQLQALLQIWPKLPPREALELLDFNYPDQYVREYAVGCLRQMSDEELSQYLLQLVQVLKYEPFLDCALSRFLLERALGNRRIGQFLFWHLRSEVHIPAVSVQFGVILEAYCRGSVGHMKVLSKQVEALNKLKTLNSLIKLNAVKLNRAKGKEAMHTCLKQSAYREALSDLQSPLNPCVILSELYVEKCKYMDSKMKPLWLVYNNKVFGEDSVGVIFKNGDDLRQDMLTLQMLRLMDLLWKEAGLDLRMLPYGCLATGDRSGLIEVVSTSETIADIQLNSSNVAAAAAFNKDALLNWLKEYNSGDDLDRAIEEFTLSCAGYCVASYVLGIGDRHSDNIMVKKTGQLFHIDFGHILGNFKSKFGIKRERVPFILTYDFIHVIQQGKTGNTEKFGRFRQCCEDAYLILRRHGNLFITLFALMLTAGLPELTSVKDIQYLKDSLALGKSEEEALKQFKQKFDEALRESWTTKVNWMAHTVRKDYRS
Summary of the method: as §1

[2] = target: T8, RSK3(Kin.Dom.1-N-terminal) (Homo sapiens, UniProt Q15349)
T8 construct: gene RPS6KA2; Kin.Dom.1-N-terminal
Summary of the method: as §1

[3] = target: T9, ABL1(Q252H)-phosphorylated (Homo sapiens, UniProt P00519, Q252H)
T9 construct: phosphorylated
Summary of the method: as §1

PIK3CD = PIK3CD (Homo sapiens, UniProt O00329)
Summary of the method: as §1

PCTK1 = target: T10, PCTK1 (Homo sapiens, UniProt Q00536)
T10 construct: gene CDK16
Summary of the method: as §1

DYRK2 = DYRK2 (Homo sapiens, UniProt Q92630)
Summary of the method: as §1

CHEK1 = CHEK1 (Homo sapiens, UniProt O14757)
Summary of the method: as §1

- inhibition at 1 µM (WNK2): 14%
- inhibition at 1 µM (ASK2): 0%
- inhibition at 1 µM (JNK3): 0%
- inhibition at 1 µM (PRKR): 7%
- inhibition at 1 µM (MINK): 22%
- inhibition at 1 µM (MEK1): 18%
- inhibition at 1 µM (DLK): 12%
- inhibition at 1 µM (TYRO3): 0%
- inhibition at 1 µM (PIK3CA(Q546K)): 37%
- inhibition at 1 µM (RIOK3): 0%
- inhibition at 1 µM (GRK1): 20%
- inhibition at 1 µM (MYLK): 0%
- inhibition at 1 µM (BRAF): 20%
- inhibition at 1 µM [1]: 11%
- inhibition at 1 µM (ZAK): 1%
- inhibition at 1 µM (KIT(V559D,V654A)): 0%
- inhibition at 1 µM (PIK3CB): 25%
- inhibition at 1 µM [2]: 11%
- inhibition at 1 µM [3]: 34%
- inhibition at 1 µM (PIK3CD): 37%
- inhibition at 1 µM (PCTK1): 22%
- inhibition at 1 µM (DYRK2): 0%
- inhibition at 1 µM (CHEK1): 1%
SMILES: CNS(=O)(=O)c1ccc(N(C)C)c(Nc2nc(C)nc3cc(OC)c(OC)cc23)c1 [compound 15, 3-((6,7-dimethoxy-2-methylquinazolin-4-yl)amino)-4-(dimethylamino)-N-methylbenzenesulfonamide]
